System: healthy, elderly men
Experiment: Phase I repeated dose study 101-50202: serum hormone concentrations before and during 28-day treatment
Format: in vivo, human
Settings: for increase in the mean total testosterone compared to the baseline concentration: 300 mg dose
Description: Fispemifene has been studied in two phase I studies in humans—in a single dose and a repeated dose study. Effect of fispemifene on hormone levels was one main focus of the repeated dose study. The phase I repeated dose study (number 101-50202) was a randomized, double-blind, placebo-controlled 28-day dose-escalation study performed in 32 healthy, elderly men, aged 50-68 years. The main objective of the study was to investigate the tolerability, safety and pharmacokinetics of fispemifene after repeated oral doses, but the study focused also on the effects of fispemifene on serum testosterone, estradiol, and other relevant hormones. The fispemifene doses 10, 30, 100 and 300 mg per day and placebo were administered once every morning as capsules containing 10 mg or 100 mg of fispemifene, or placebo. The dose was escalated to the next higher dose level, if the previous dose had been safe and well tolerated evaluated by the laboratory safety determinations and ultrasound of mammagy glands.
The variables for safety and tolerability were adverse events, vital signs, 12-lead ECG, clinical laboratory evaluations, physical examination, ultrasound examinations (mammary glands) and inhibin b. For pharmacokinetics, the concentrations of fispemifene and its metabolite(s) were to be evaluated. For pharmacodynamics, serum concentrations of FSH, LH, estradiol, testosterone, SHBG, prolactin, aldosterone, cortisol and TSH before and during treatment were measured and compared with the concentrations in the placebo-group.

Structure (SMILES): OCCOCCOc1ccc(/C(=C(/CCCl)c2ccccc2)c2ccccc2)cc1 [Fispemifene, (Z)-2-{2-[4-(4-Chloro-1,2-diphenylbut-1-enyl)phenoxy]ethoxy}ethanol]
- Serum total testosterone concentration, Mean (10 mg per day oral, Baseline): 19.33 nmol/L
- Serum total testosterone concentration, Mean (10 mg per day oral, Day 8): 19.83 nmol/L
- Serum total testosterone concentration, Mean (10 mg per day oral, Day 15): 20.50 nmol/L
- Serum total testosterone concentration, Mean (10 mg per day oral, Day 22): 22.00 nmol/L
- Serum total testosterone concentration, Mean (10 mg per day oral, Day 28): 17.40 nmol/L
- Serum total testosterone concentration, Mean (30 mg per day oral, Baseline): 15.00 nmol/L
- Serum total testosterone concentration, Mean (30 mg per day oral, Day 8): 14.40 nmol/L
- Serum total testosterone concentration, Mean (30 mg per day oral, Day 15): 15.00 nmol/L
- Serum total testosterone concentration, Mean (30 mg per day oral, Day 22): 15.80 nmol/L
- Serum total testosterone concentration, Mean (30 mg per day oral, Day 28): 14.80 nmol/L
- increase of the mean total testosterone (100 mg dose, 28 days of treatment): about 32%
- subjects in whom an increase in testosterone serum concentration was seen (100 mg or 300 mg, 28-day treatment): all the subjects
- Serum total testosterone concentration, Mean (100 mg per day oral, Baseline): 14.27 nmol/L
- Serum total testosterone concentration, Mean (100 mg per day oral, Day 8): 18.67 nmol/L
- Serum total testosterone concentration, Mean (100 mg per day oral, Day 15): 19.00 nmol/L
- Serum total testosterone concentration, Mean (100 mg per day oral, Day 22): 17.83 nmol/L
- Serum total testosterone concentration, Mean (100 mg per day oral, Day 28): 18.83 nmol/L
- increase in the mean total testosterone compared to the baseline concentration (28 days of treatment): 75%
- increase in the mean total testosterone compared to the baseline concentration (28 days of treatment, listed as fispemifene): about 75%
- Serum total testosterone concentration, Mean (300 mg per day oral, Baseline): 15.67 nmol/L
- Serum total testosterone concentration, Mean (300 mg per day oral, Day 8): 23.17 nmol/L
- Serum total testosterone concentration, Mean (300 mg per day oral, Day 15): 27.00 nmol/L
- Serum total testosterone concentration, Mean (300 mg per day oral, Day 22): 27.83 nmol/L
- Serum total testosterone concentration, Mean (300 mg per day oral, Day 28): 27.50 nmol/L
- serum concentrations of testosterone, FSH, LH, and SHBG (during the 28 days of treatment): increased
- men with serum testosterone level above the upper limit of normal range (33 nmol/L) during treatment (highest dose (300 mg), six men): Two out of six men
- change in the serum testosterone concentration (within 28 days from the start of the treatment): clinically and statistically significant and dose dependent increase

Reference: patent publication US20060293294A1, “Method for treatment or prevention of androgen deficiency” (HORMOS MEDICAL CORPORATION, priority 2004, published 2006)
